Measured values published in patent US7955596B2 (priority 2003, dated 2011).

System: B. anthracis strain 34F2ΔluxS
Format: cell-based

## CCCCC1=C(Br)/C(=C/Br)OC1=O [furanone 1, (5Z)-4-bromo-5-(bromomethylene)-3-butyl-2(5H)-furanone]
  Growth of the 34F2ΔluxS strain (OD600): dramatically inhibited
20 μg/ml, 30 hrs
  Growth inhibitory effect for 34F2ΔluxS relative to wild-type 34F2: prolonged
